We go through one compound from patent US7973055B2, “Crystalline forms of a biphenyl compound” (Theravance, Inc., priority 2006, dated 2011).

Bounds are passed on as bounds.

This experiment deals with T1, hM2 receptor (CHO-K1 cells) (Homo sapiens, UniProt P08172).
T1 construct: expressed in transfected cells; host or cells: CHO-K1 cells
T1 sequence (P08172 1-466): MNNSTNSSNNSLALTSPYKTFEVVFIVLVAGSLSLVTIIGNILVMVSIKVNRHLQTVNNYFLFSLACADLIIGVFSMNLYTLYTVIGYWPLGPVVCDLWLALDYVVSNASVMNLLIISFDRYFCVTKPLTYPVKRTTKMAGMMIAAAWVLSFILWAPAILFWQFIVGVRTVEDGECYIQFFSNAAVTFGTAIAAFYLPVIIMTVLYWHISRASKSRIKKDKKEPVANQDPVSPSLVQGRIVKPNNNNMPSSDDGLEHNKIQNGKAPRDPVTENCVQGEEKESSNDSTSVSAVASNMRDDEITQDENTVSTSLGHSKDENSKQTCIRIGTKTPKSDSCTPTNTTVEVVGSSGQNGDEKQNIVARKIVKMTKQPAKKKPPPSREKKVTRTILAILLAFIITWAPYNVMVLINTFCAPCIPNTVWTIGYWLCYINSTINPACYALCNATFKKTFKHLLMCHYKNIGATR
In words: Blockade of agonist-mediated inhibition of cAMP accumulation. Type of experiment: cell-based. The note with it: CHO-K1 cells expressing hM2; this or a similar assay; read-out: Ki for blockade of oxotremorine-inhibition of forskolin-mediated cAMP accumulation. How it is done:
In this assay, the functional potency of a test compound was determined by measuring the ability of the test compound to block oxotremorine-inhibition of forskolin-mediated cAMP accumulation in CHO-K1 cells expressing the hM2 receptor. cAMP assays were performed in a radioimmunoassay format using the Flashplate Adenylyl Cyclase Activation Assay System with ^125I-cAMP (NEN SMP004B, PerkinElmer Life Sciences Inc., Boston, Mass.), according to the manufacturer's instructions.
Cells were rinsed once with dPBS and lifted with Trypsin-EDTA solution (0.05% trypsin/0.53 mM EDTA) as described in the Cell Culture and Membrane Preparation section above. […] The cell pellet was then re-suspended in 10 mL dPBS, and the cells were counted with a Coulter Z1 Dual Particle Counter (Beckman Coulter, Fullerton, Calif.). […]
To measure oxotremorine inhibition of AC activity, 25 μL forskolin (25 μM final concentration diluted in dPBS), 25 μL diluted oxotremorine, and 50 μL cells were added to agonist assay wells. […] Plates were sealed, incubated overnight at room temperature and counted the next morning on a PerkinElmer TopCount liquid scintillation counter (PerkinElmer Inc., Wellesley, Mass.). The amount of cAMP produced (pmol/well) was calculated based on the counts observed for the samples and cAMP standards, as described in the manufacturer's user manual. […]

As usually defined, the Ki is the equilibrium dissociation constant of an inhibitor or competing ligand from its target.

For the compound `CN(CCN1CCC(OC(=O)Nc2ccccc2-c2ccccc2)CC1)C(=O)c1cccc(C(=O)NCCNCc2ccc(O)cc2)c1` [compound of formula I, biphenyl-2-ylcarbamic acid 1-[2-({3-[2-(4-hydroxybenzylamino)ethylcarbamoyl]benzoyl}methylamino)ethyl]piperidin-4-yl ester], the Ki was below 5 nM.
